Test results: PMC8583417, “Evaluation of the Antimicrobial Efficacy of N-Acetyl-L-Cysteine, Rhamnolipids, and Usnic Acid—Novel Approaches to Fight Food-Borne Pathogens” (International Journal of Molecular Sciences, 2021)

What was measured:
L. monocytogenes 164 [1] = experiment: MIC for reduction of preformed biofilm (crystal violet staining); format: cell-based, Listeria monocytogenes; conditions: for MICBR80: ≥80% reduction of preformed biofilm (18 h), 20 h with substance
Method: (§1) Ten concentrations of NAC, RLs, and UA were tested to determine the minimum inhibitory concentration for planktonic growth, and subsequently, the six highest concentrations were applied on preformed biofilms to evaluate the biofilm eradication ability of the compounds. MIC was defined as the lowest substance concentration able to inhibit at least 80% of microbial growth (MICPC80 for planktonic cells, MICBC80 for further growth of biofilm cells), inhibit 80% of metabolic activity (MICBM80 for biofilm metabolic activity, MICMPB80 for metabolic activity of preformed biofilm), prevent biofilm formation by at least 80% (MICBF80 for biofilm formation), or reduce a preformed biofilm by at least 80% (MICBR80 for biofilm reduction). The results of MICs are summarized in Table 1 (planktonic cells) and Table 2 (biofilm-associated cells).
(§2) The determination of MICs was performed according to Chlumsky et al.. Briefly, 96-well flat-bottomed microtiter plates were inoculated with 75 µL (for biofilm formation) or 100 µL (for preformed biofilm) of bacterial suspension (A625nm 0.08 to 0.1) in technical triplicates and were then carefully mixed with the dilution series of the test substances (24 h cultivation at 25 °C for S. Infantis, 37 °C for other strains) or were directly cultivated to preform biofilms (18 h). For a positive control of bacterial growth, the inoculum was mixed with a pure sterile medium. Furthermore, the sterile medium was included in the plate as a marker of potential microbial contamination. To evaluate planktonic cells growth (MICPC80) and further growth of biofilm cells (MICBC80), the optical density of the content of the microtiter plates was measured spectrophotometrically at 625 nm before and after 24 h (for biofilm formation) of cultivation or before and after additional 20 h incubation with the tested compound (for preformed biofilm). The difference of A625nm was considered as a measure of the ability of cells to grow in the presence of the tested substances. To evaluate the inhibition of biofilm formation (MICBF80) and reduction in preformed biofilms (MICBR80), biomass was quantified using crystal violet staining, and its metabolic activity (MICBM80 and MICMPB80) was estimated by using the MTT (thiazyl tetrazolium bromide, Sigma-Aldrich, USA) reduction assay, both measured spectrophotometrically at 595 nm.
(§3) All inhibitions were calculated using the formula of Chlumsky et al. below (Equation (1)):(1) A625(595)nm inhibition (%)=A625(595)nm (control) – A625(595)nm(natural substance)/A625(595)nm (control)× 100 where A625(595)nm (control) is the absorbance of bacterial suspension/biofilm itself, and A625(595)nm(natural substance) is the absorbance of the bacterial suspension/biofilm with the added natural substance (NAC, RLs, and UA).
(§4) When the minimum inhibitory concentration could not be determined, the MIC was established as >the highest tested concentration for NAC, RLs, and UA.

L. monocytogenes 149 [2] = experiment: as above; format: cell-based, Listeria monocytogenes; conditions: for MICBR80: ≥80% reduction of preformed biofilm (18 h), 20 h with substance
Method: as §1, §2, §3, §4

L. monocytogenes 164 [3] = experiment: MIC for biofilm formation (crystal violet staining); format: cell-based, Listeria monocytogenes; conditions: ≥80% prevention, 24 h
Method: as §1
as §2, with “Furthermore, the sterile medium was included in the plate as a marker of potential microbial contamination.” left out, “The difference of A625nm was considered as a measure of the ability of cells to grow in the presence of the tested substances.” left out
as §3, §4

L. monocytogenes 149 [4] = experiment: as above; format: cell-based, Listeria monocytogenes; conditions: ≥80% prevention, 24 h
Method: as §1
as §2, with “Furthermore, the sterile medium was included in the plate as a marker of potential microbial contamination.” left out, “The difference of A625nm was considered as a measure of the ability of cells to grow in the presence of the tested substances.” left out
as §3, §4

E. coli 683/17 = experiment: CLSM analysis, biofilm removal (preformed biofilm); format: cell-based, Escherichia coli; conditions: for Thickness (µm) subCBM80: substance at subinhibitory concentration
Method: (§5) Biofilm prevention and removal analyses were performed using previously determined minimum inhibitory and subinhibitory concentrations for metabolic activity (MICBM80, subCBM80; MICMPB80, subCMPB80) of NAC, RLs, and UA specific for each tested strain. Selected concentrations were used to evaluate the inhibition of biofilm formation (biofilm prevention) and the reduction in previously formed biofilms (biofilm removal) for the same set of microorganisms, with the exception of S. Infantis, which was excluded from the analysis due to its inability to form biofilm in the selected microtiter plate. Biofilm prevention and removal were observed using CLSM with specific staining to distinguish between live and membrane-compromised cells. Images were analyzed to evaluate (i). the total volume of the biomass, (ii). ratios of live and membrane-compromised cells, and (iii). to calculate biofilm volume reduction for individual organisms after the respective treatment types. The total biofilm volume was normalized by the area of the well and expressed as an average biofilm thickness. Complete data are provided in Supplementary Materials (Tables S1–S8).
(§6) At first, bacterial suspensions were cultivated in microtiter plates to produce overnight biofilms (18 h). […] cells were then washed out, and the remaining biofilms were further cultivated for an additional 20 h with selected compounds. Following biofilm cultivation, biomass was observed using CLSM with live/membrane-compromised cell staining. Biomass images from biofilm removal treatments were similar to results from biofilm prevention, where biomass was highly diversified across the bacterial species and strains. Visually, biomass images were fairly consistent within the quadruplicates for each tested organism. Non-treated biofilms of S. aureus contained consistent biomass spread across the well (S. aureus 816) or grown around the edges (S. aureus 1241). […] PI staining identified membrane-compromised cells spread across S. aureus 816 biomass and incorporated in the edge of biomass and/or in the central part of the well (Figure 4B,C). […] Membrane-compromised cells appeared contained around the edges (S. aureus 1241), disturbed across the well (in both strains of L. monocytogenes), or in separated biomass in the central part of the well (in both strains of E. coli when treated with the subinhibitory concentration of RLs) (Figure 4D,E).
(§7) For both inhibition and reduction of biofilms, overnight cultures from BHI were diluted in TSB + 1% Glc to reach an absorbance of 0.08 to 0.1 at 625 nm. The inoculum (150 µL) was transferred into wells of the 96-well flat-bottomed Ibidiμ-Plate (Ibidi, Gräfelfing, Germany) and mixed with 150 µL of each of the three tested substances in technical quadruplicates, followed by incubation at 37 °C for 24 h. Simultaneously, the prepared bacterial suspensions were inoculated to an additional microtiter plate (200 µL) and allowed to form biofilm overnight (18 h at 37 °C). After the incubation, the content of the well was drained off, and 200 µL of each of the three tested substances was added to the plate, which was then incubated for an additional 20 h. The used concentrations of the substances represented the subinhibitory and minimum inhibitory concentrations for metabolic activity (subCBM80, MICBM80; subCMPB80, MICMPB80). Both setups contained a positive control of the bacterial growth (inoculum mixed with sterile TSB + 1% Glc medium) and a control monitoring microbial contamination (sterile medium). Non-treated wells were used as a positive control for comparison between non-treated and treated biofilm mass.
(§8) Prior to the imaging, the wells were stained with the LIVE/DEAD® BacLight™ Bacterial Viability Kit (Thermo Fisher Scientific, MA, USA) following the manufacturer’s guidelines and Drago et al.. […]

E. coli 693/17 = experiment: CLSM analysis, biofilm removal (preformed biofilm); format: cell-based, Escherichia coli; conditions: for Thickness (µm) subCBM80: substance at subinhibitory concentration
Method: as §5, §6, §7, §8

[5] = test system: S. Enteritidis ATCC 13076; experiment: MIC for further growth of biofilm cells, preformed biofilm (A625nm); format: cell-based, Salmonella enterica Enteritidis; conditions: for MICBC80: ≥80% inhibition, 18 h preformed biofilm, 20 h with substance
Method: as §1
The determination of MICs was performed according to Chlumsky et al.. […] To evaluate planktonic cells growth (MICPC80) and further growth of biofilm cells (MICBC80), the optical density of the content of the microtiter plates was measured spectrophotometrically at 625 nm before and after 24 h (for biofilm formation) of cultivation or before and after additional 20 h incubation with the tested compound (for preformed biofilm). […] To evaluate the inhibition of biofilm formation (MICBF80) and reduction in preformed biofilms (MICBR80), biomass was quantified using crystal violet staining, and its metabolic activity (MICBM80 and MICMPB80) was estimated by using the MTT (thiazyl tetrazolium bromide, Sigma-Aldrich, USA) reduction assay, both measured spectrophotometrically at 595 nm.
as §3, with “UA). […]” for “UA).”

[6] = preformed biofilm, within tested concentrations
[7] = preformed biofilm, 20 h exposure, substance at its MIC, mean ± SD
[8] = preformed biofilm, 20 h exposure, mean ± SD
[9] = 20 h, subinhibitory concentration

SMILES | maximal achieved inhibition (MICBR80 not reached), biofilm reduction (L. monocytogenes 164 [1]; [6]) [%] | MICBR80 (L. monocytogenes 164 [1]) | MICBR80 (L. monocytogenes 149 [2]) | MICBF80 (L. monocytogenes 164 [3]) [µg/mL] | MICBF80 (L. monocytogenes 149 [4]) [µg/mL] | Thickness (µm) MICBM80 (E. coli 683/17; [7]) [µm] | Thickness (µm) subCBM80 (E. coli 683/17; [8]) [µm] | Thickness (µm) MICBM80 (E. coli 693/17; [7]) [µm] | Thickness (µm) subCBM80 (E. coli 693/17; [8]) [µm] | MICBC80 [5] [µg/mL] | maximal achieved inhibition (MICBR80 not reached), biofilm reduction (L. monocytogenes 149 [2]; [6]) [%] | proportion of membrane-compromised cells (E. coli 683/17; [9]) | proportion of membrane-compromised cells (E. coli 693/17; [9]) | maximal achieved inhibition (MICBC80 not reached) ([5]; within tested concentrations) [%]
CC(=O)N[C@@H](CS)C(=O)O [NAC, N-Acetyl-L-cysteine] | 46 | > 100,000 µg/mL | 100,000 µg/mL | 6250 | 6250 | 153 ± 33.3 | 128 ± 31.6 | 222 ± 68.8 | 181 ± 33.7 | 6250 | – | – | – | –
CC(=O)c1c(O)c(C)c(O)c2c1OC1=CC(=O)C(C(C)=O)C(=O)C12C (single isomer, unassigned; (+)) [UA, (+)-usnic acid] | – | 1.96 µg/mL | > 31.3 µg/mL | 1.96 | 0.98 | – | 285 ± 38.5 | – | 254 ± 81.8 | > 31.3 | 69 | up to 40% | up to 40% | 51
